Reference: patent US10052311B2, “PPAR compounds for use in the treatment of fibrotic diseases” (INVENTIVA, priority 2014, dated 2018)

System: anti-GBM exposed mice
Experiment: Anti-GBM induced glomerulonephritis in mice
Format: in vivo, mouse
Conditions: 10 mg/kg/day po 7 days, vs vehicle

In the case of `C[C@H](CS)C(=O)N1CCC[C@H]1C(=O)O` [captopril, reference compound], the “Col1a expression (kidney)” value is reported as “had no effect on Col1a expression”, the “Col3a expression (kidney)” value is reported as “had no effect on Col3a expression” and the “TGFβR-1 expression (kidney)” value is reported as “had no effect on TGFβ-R1 expression”. The “kidney MCP-1 levels” value was “significantly reduced MCP-1 levels”, the kidney osteopontin levels was “significantly reduced osteopontin levels” and the serum urea levels was “reduced urea level without reaching significance”. For the same compound, the urinary albumin levels was “reduced albumin levels without reaching significance”.
